Where two headings read alike, the source gives them in different places.
Assays:
[1] = molecular target: T1, human DGAT2 (Homo sapiens, UniProt Q96PD7); experiment: DGAT enzyme inhibition test, hDGAT2 enzyme from sf9 insect cells (DGAT2 selectivity); assay type: biochemical
T1 construct: made in house; host or cells: sf9 insect cells
T1 sequence (Q96PD7 1-388): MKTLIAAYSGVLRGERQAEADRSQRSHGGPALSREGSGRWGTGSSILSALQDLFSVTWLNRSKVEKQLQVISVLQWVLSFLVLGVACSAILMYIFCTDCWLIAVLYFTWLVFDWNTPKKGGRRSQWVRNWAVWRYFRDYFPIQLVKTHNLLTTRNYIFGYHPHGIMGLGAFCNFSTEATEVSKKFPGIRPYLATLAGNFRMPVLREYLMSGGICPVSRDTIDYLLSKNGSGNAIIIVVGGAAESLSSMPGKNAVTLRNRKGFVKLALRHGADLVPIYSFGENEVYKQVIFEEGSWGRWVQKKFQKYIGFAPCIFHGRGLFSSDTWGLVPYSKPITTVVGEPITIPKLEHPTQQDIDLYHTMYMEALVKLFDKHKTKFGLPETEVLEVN
From the text: (§1) To investigate inhibitory effect of the compounds of Examples 1-33 against DGAT enzyme activity, DGAT enzyme inhibition and DGAT2 selectivity were investigated using zymogen including:
1) hDGAT1 and hDGAT2 enzymes, derived from insect cell overexpressing human DGAT1 and DGAT2 (‘sf9’), respectively,
(§2) To be specific, for the purpose of measuring human-derived DGAT enzyme inhibitory activity, using the zymogen, including enzymes derived from insect cell overexpressing human DGAT1 and DGAT2 (‘sf9’), microsomal protein isolated from human duodenal adenocarcinoma (‘Hutu 80’), and microsomal protein isolated from rat, and according to Coleman et al., (Methods Enzymol., 98-103, 1992), and substrate including 1,2-diacylglycerol(Sigma, D0138) and [^14C]palmitoyl-CoA (Amersham, CFA583), the amount of radiation of [^14C]triacylglycerol produced after enzymatic reaction was measured.
(§3) To be more specific, to the reaction solution containing 175 mM Tris-HCl (pH 8.0), 20 μl bovine serum albumin (10 mg/ml), 100 mM magnesium chloride, 30 μM [^14C]palmitoyl CoA (0.02 μCi, Amersham) and 200 μM 1,2-dioleoylglycerol, reagent dissolved in dimethylsulfoxide (10.0 μl) was added. After introducing 100 to 200 μg isolated microsomal protein and allowing the same to react at 25° C. for 10 min, the reaction was stopped by adding 1.5 ml stop solution (2-propanol:heptane:water=80:20:2, v:v:v). To isolate the product of the reaction (i.e., [^14C]triacylglycerol), 1 ml heptane and 0.5 ml distilled water were added and then decocted. After taking 1 ml supernatant, 2 ml alkaline ethanol solution (ethanol:0.5 N sodium hydroxide:water=50:10:40, v:v:v) were added and then decocted. After taking 0.65 ml supernatant from the decoction, the amount of radiation was measured with liquid scintillation counter (LSC). The DGAT inhibitory activity was calculated with Mathematical Expression 1 below:
(§4) T denotes cpm of experimental group in which the enzymatic reaction solution was treated with the sample,
(§5) C denotes cpm of control group in which the enzymatic reaction solution was not treated with the sample, and
(§6) B denotes cpm of control group treated with the sample without zymogen.

[2] = molecular target: T2, DGAT-1 (rat liver) (Rattus norvegicus, UniProt Q9ERM3); experiment: DGAT enzyme inhibition test, rat liver-derived DGAT enzyme; assay type: biochemical; conditions: rat liver microsomal protein
T2 construct: microsomal protein isolated from rat; from tissue; host or cells: rat liver microsomes
T2 sequence (Q9ERM3 1-498): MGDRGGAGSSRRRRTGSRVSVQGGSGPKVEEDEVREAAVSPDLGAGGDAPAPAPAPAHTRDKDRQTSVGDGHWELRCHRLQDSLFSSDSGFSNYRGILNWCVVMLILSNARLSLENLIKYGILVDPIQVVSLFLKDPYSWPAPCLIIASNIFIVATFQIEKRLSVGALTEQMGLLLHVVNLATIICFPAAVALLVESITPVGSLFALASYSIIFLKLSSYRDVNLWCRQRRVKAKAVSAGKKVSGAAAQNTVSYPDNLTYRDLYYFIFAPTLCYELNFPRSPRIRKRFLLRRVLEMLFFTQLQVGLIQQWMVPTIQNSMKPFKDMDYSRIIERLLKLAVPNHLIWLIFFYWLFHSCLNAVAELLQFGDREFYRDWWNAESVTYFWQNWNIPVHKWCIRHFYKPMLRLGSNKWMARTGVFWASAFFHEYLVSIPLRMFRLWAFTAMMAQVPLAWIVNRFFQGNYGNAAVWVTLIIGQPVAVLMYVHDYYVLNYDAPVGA
From the text: as §1
3) rat liver-derived DGAT enzyme.
as §2, §3, §4, §5, §6

[3] = 10 μM, enzyme from sf9 cells overexpressing hDGAT2, read-out: hDGAT-2 (sf9) inhibition rate(%)at 10 μM
[4] = concentration of 10 μM, read-out: hDGAT2 inhibition

`CC(C)=CCn1cc(/C=C/C(=O)N(NC(=O)c2ccccc2)C(C)C)c2ccccc21` [Example 27, (E)-N′-isopropyl-N′-(3-(1-(3-methylbut-2-enyl)-1H-indol-3-yl)acryloyl)benzohydrazide] was tested, and the inhibition at 10 µM [1, 3] was 1.2%, the inhibition at 10 µM [1, 4] was < 11% and the IC50 [2] was 0.5 µM.
In the case of `CC(C)N(NC(=O)c1cccc(OCC(N)=O)c1)C(=O)/C=C/c1cn(C(=O)OC(C)(C)C)c2ccccc12` [Example 20, (E)-tert-butyl 3-(3-(2-(3-(2-amino-2-oxoethoxy)benzoyl)-1-isopropylhydrazinyl)-3-oxoprop-1-enyl)-1H-indole-1-carboxylate], the inhibition at 10 µM [1, 3] is reported as < 0% and the IC50 [2] is reported as > 100 µM.
With `CC(C)N(NC(=O)c1ccccc1)C(=O)/C=C/c1cn(Cc2ccccc2)c2ccccc12` [Example 26, (E)-N′-(3-(1-benzyl-1H-indol-3-yl)acryloyl)-N′-isopropylbenzohydrazide] the inhibition at 10 µM [1, 3] was 5%, the inhibition at 10 µM [1, 4] was < 11% and the IC50 [2] was 2.4 µM.
`CC(C)N(NC(=O)c1ccc(Cl)cc1)C(=O)/C=C/c1cn(C(=O)OC(C)(C)C)c2ccccc12` [Example 14, (E)-tert-butyl 3-(3-(2-(4-chlorobenzoyl)-1-isopropylhydrazinyl)-3-oxoprop-1-enyl)-1H-indole-1-carboxylate] was tested, and the inhibition at 10 µM [1, 3] was < 0%, the inhibition at 10 µM [1, 4] was < 11% and the IC50 [2] was 2.8 µM.
`CC(C)N(NC(=O)c1cccc(O)c1)C(=O)/C=C/c1cn(C(=O)OC(C)(C)C)c2ccccc12` [Example 4, (E)-tert-butyl 3-(3-(2-(3-hydroxybenzoyl)-1-isopropylhydrazinyl)-3-oxoprop-1-enyl)-1H-indole-1-carboxylate] was tested, and the inhibition at 10 µM [1, 3] was < 0% and the IC50 [2] was 22.4 µM.
In the case of `CC(C)N(NC(=O)c1cccc(OCC(=O)O)c1)C(=O)/C=C/c1cn(C(=O)OC(C)(C)C)c2ccccc12` [Example 19, (E)-2-(3-(2-(3-(1-(tert-butoxycarbonyl)-1H-indol-3-yl)acryloyl)-2-isopropylhydrazinecarbonyl)phenoxy)acetic acid], the inhibition at 10 µM [1, 3] is reported as < 0% and the IC50 [2] is reported as 45.5 µM.
`CC(C)N(NC(=O)c1ccc(Br)cc1)C(=O)/C=C/c1cn(C(=O)OC(C)(C)C)c2ccccc12` [Example 13, (E)-tert-butyl 3-(3-(2-(4-bromobenzoyl)-1-isopropylhydrazinyl)-3-oxoprop-1-enyl)-1H-indole-1-carboxylate] was tested, and the inhibition at 10 µM [1, 3] was 2.3%, the inhibition at 10 µM [1, 4] was < 11% and the IC50 [2] was 9.1 µM.
Work on `Cc1ccc(C(=O)NN(C(=O)/C=C/c2cn(C(=O)OC(C)(C)C)c3ccccc23)C(C)C)cc1` [Example 48, (E)-tert-butyl 3-(3-(1-isopropyl-2-(4-methylbenzoyl)hydrazinyl)-3-oxoprop-1-enyl)-1H-indole-1-carboxylate] yielded an inhibition at 10 µM [1, 3] of 22.1%.
In the case of `CC(C)N(NC(=O)c1ccccc1)C(=O)CCc1c[nH]c2ccccc12` [Example 23, N′-(3-(1H-indol-3-yl)propanoyl)-N′-isopropylbenzohydrazide], the inhibition at 10 µM [1, 3] is reported as < 0% and the IC50 [2] is reported as 31.4 µM.
In the case of `CC(C)N(NC(=O)c1cccc(F)c1)C(=O)/C=C/c1cn(C(=O)OC(C)(C)C)c2ccccc12` [Example 15, (E)-tert-butyl 3-(3-(2-(3-fluorobenzoyl)-1-isopropylhydrazinyl)-3-oxoprop-1-enyl)-1H-indole-1-carboxylate], the inhibition at 10 µM [1, 3] is reported as < 0%, the inhibition at 10 µM [1, 4] is reported as < 11% and the IC50 [2] is reported as 0.4 µM.
`CC(C)(C)OC(=O)n1cc(/C=C/C(=O)NNS(=O)(=O)c2ccccc2)c2ccccc21` [Example 17, (E)-tert-butyl 3-(3-oxo-3-(2-(phenylsulfonyl)hydrazinyl)prop-1-enyl)-1H-indole-1-carboxylate] was tested, and the inhibition at 10 µM [1, 3] was < 0% and the IC50 [2] was 83.6 µM.
In the case of `CC(C)N(NC(=O)c1ccccc1)C(=O)/C=C/c1cn(C(=O)C(C)(C)C)c2ccccc12` [Example 31, (E)-N′-isopropyl-N′-(3-(1-pivaloyl-1H-indol-3-yl)acryloyl)benzohydrazide], the inhibition at 10 µM [1, 3] is reported as 4.4%, the inhibition at 10 µM [1, 4] is reported as < 11% and the IC50 [2] is reported as 3.4 µM.
For `CC(C)N(NC(=O)c1ccccc1)C(=O)/C=C/c1cn(C)c2ccccc12` [Example 25], the inhibition at 10 µM [1, 3] was < 0% and the IC50 [2] was 9.3 µM.
`Cc1cccc(C(=O)NN(C(=O)/C=C/c2cn(C(=O)OC(C)(C)C)c3ccccc23)C(C)C)c1` [Example 47, (E)-tert-butyl 3-(3-(1-isopropyl-2-(3-methylbenzoyl)hydrazinyl)-3-oxoprop-1-enyl)-1H-indole-1-carboxylate] showed an inhibition at 10 µM [1, 3] of 34.1%.
In the case of `CC(C)N(NC(=O)c1ccc(OCCN2CCOCC2)cc1)C(=O)/C=C/c1cn(C(=O)OC(C)(C)C)c2ccccc12` [Example 9, (E)-tert-butyl 3-(3-(1-isopropyl-2-(4-(2-morpholinoethoxy)benzoyl)hydrazinyl)-3-oxoprop-1-enyl)-1H-indole-1-carboxylate], the inhibition at 10 µM [1, 3] is reported as < 0% and the IC50 [2] is reported as 11.8 µM.
With `CC(C)(C)OC(=O)n1cc(/C=C/C(=O)NNC(=O)c2ccccc2)c2ccccc21` [Example 16, (E)-tert-butyl 3-(3-(2-benzoylhydrazinyl)-3-oxoprop-1-enyl)-1H-indole-1-carboxylate] the inhibition at 10 µM [1, 3] was 3.7% and the IC50 [2] was 26.3 µM.
With `CC(C)N(NC(=O)c1cccnc1)C(=O)/C=C/c1cn(C(=O)OC(C)(C)C)c2ccccc12` [Example 3, (E)-tert-butyl 3-(3-(1-isopropyl-2-nicotinoylhydrazinyl)-3-oxoprop-1-enyl)-1H-indole-1-carboxylate] the inhibition at 10 µM [1, 3] was < 0% and the IC50 [2] was 3.9 µM.
With `CC(C)=CCn1cc(/C=C/C(=O)N(NC(=O)c2ccc(F)cc2)C(C)C)c2ccccc21` [Example 49, (E)-4-fluoro-N′-isopropyl-N′-(3-(1-(3-methylbut-2-enyl)-1H-indol-3-yl)acryloyl)benzohydrazide] the inhibition at 10 µM [1, 3] was 28%.
For `CC(=O)n1cc(/C=C/C(=O)N(NC(=O)c2ccccc2)C(C)C)c2ccccc21` [Example 30, (E)-N′-(3-(1-acetyl-1H-indol-3-yl)acryloyl)-N′-isopropylbenzohydrazide], the inhibition at 10 µM [1, 3] was < 0% and the IC50 [2] was 22.5 µM.
`CC(C)N(NC(=O)c1ccccn1)C(=O)/C=C/c1cn(C(=O)OC(C)(C)C)c2ccccc12` [Example 2, (E)-tert-butyl 3-(3-(1-isopropyl-2-picolinoylhydrazinyl)-3-oxoprop-1-enyl)-1H-indole-1-carboxylate] was tested, and the inhibition at 10 µM [1, 3] was < 0% and the IC50 [2] was 7.6 µM.
With `CC(C)N(NC(=O)c1ccccc1)C(=O)CCc1cn(C(=O)OC(C)(C)C)c2ccccc12` [Example 24, tert-butyl 3-(3-(2-benzoyl-1-isopropylhydrazinyl)-3-oxopropyl)-1H-indole-1-carboxylate] the inhibition at 10 µM [1, 3] was < 0% and the IC50 [2] was 8.6 µM.
`CC(C)CCn1cc(/C=C/C(=O)N(NC(=O)c2ccc(F)cc2)C(C)C)c2ccccc21` [Example 46, (E)-4-fluoro-N′-(3-(1-isopentyl-1H-indol-3-yl)acryloyl)-N′-isopropylbenzohydrazide] gave an inhibition at 10 µM [1, 3] of 64%.
In the case of `CC(C)N(NC(=O)c1ccc(F)cc1)C(=O)/C=C/c1cn(C(=O)OC(C)(C)C)c2ccccc12` [Example 44, (E)-tert-butyl 3-(3-(2-(4-fluorobenzoyl)-1-isopropylhydrazinyl)-3-oxoprop-1-enyl)-1H-indole-1-carboxylate], the inhibition at 10 µM [1, 3] is reported as 28.9%.

From patent US8906952B2, “Indole derivative or pharmaceutically acceptable salt thereof, preparation method thereof, and pharmaceutical composition for preventing or treating metabolic diseases containing same as active ingredient” (Korea Research Institute of Bioscience and Biotechnology, priority 2011, dated 2014)
